18 molecules from patent US20220363686A1 (AiCuris GmbH & Co. KG, priority 2018, published 2022) can be followed below.

Series [1] is described as follows: Cell viability assay (AlamarBlue). As to conditions: human, HepAD38 cells. In general terms: Resazurin is reduced to fluorescent resorufin, in cell work by metabolically active cells.
Protocol: Using the AlamarBlue viability assay cytotoxicity was evaluated in HepAD38 cells in the presence of 0.3 μg/ml tetracycline, which blocks the expression of the HBV genome. Assay condition and plate layout were in analogy to the anti-HBV assay, however other controls were used. On each assay plate six wells containing untreated HepAD38 cells were used as the 100% viability control, and six wells filled with assay medium only were used as 0% viability control. In addition, a geometric concentration series of cycloheximide starting at 60 μM final assay concentration was used as positive control in each experiment. After six days incubation period Alamar Blue Presto cell viability reagent (ThermoFisher, Dreieich) was added in 1/11 dilution to each well of the assay plate. After an incubation for 30 to 45 min at 37° C. the fluorescence signal, which is proportional to the number of living cells, was read using a Tecan Spectrafluor Plus plate reader with an excitation filter 550 nm and emission filter 595 nm, respectively. Data were normalized into percentages of the untreated control (100% viability) and assay medium (0% viability) before CC50 values were calculated using non-linear regression and the GraphPad Prism 6.0 (GraphPad Software, La Jolla, USA). Mean EC50 and CC50 values were used to calculate the selectivity index (SI=CC50/EC50) for each test compound.
For series [2], the target named is HBV core protein (C-terminal truncated core protein containing 149 amino acids of the N-terminal assembly domain) (UniProt P03146). Kind of series: Biochemical capsid assembly assay (fluorescence quenching). Further details: rows headed: Assembly Activity; other: BODIPY-FL labelled core protein, assembly started with NaCl, read after 6 min. As to conditions: read-out: Assembly Activity; BODIPY-FL labelled core protein, assembly started with NaCl, read after 6 min. The gist of the method: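 N-terminal assembly domain (residues 1–149) plus C-terminal Cys150, E. coli-expressed, BODIPY-FL-maleimide labelled, used at 1.0–2.0 μM in 50 mM HEPES pH 7.5 with 0.5% DMSO. Assembly started with NaCl ([…]); fluorescence quenching (ex 477/em 525 nm) read after 6 min. 8-point compound series; EC50 by non-linear regression.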
Sequence of HBV core protein (C-terminal truncated core protein containing 149 amino acids of the N-terminal assembly domain) (P03146 whole entry, the tested form may be a part): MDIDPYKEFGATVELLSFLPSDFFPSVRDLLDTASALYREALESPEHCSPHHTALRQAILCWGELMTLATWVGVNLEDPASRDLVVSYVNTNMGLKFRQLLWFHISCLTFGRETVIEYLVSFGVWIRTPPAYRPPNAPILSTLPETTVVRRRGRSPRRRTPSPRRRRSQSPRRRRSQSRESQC

Series [3] deals with HBV. As to the kind of experiment: Determination of HBV DNA from the supernatants of HepAD38 cells (anti-HBV activity). It counts as cell-based, hepatitis B virus. The note with it: Hepatitis B virus, HePAD38, 144 h, HBV DNA in HepAD38 supernatant, day 6, qPCR; read-out: Cell Activity. The gist of the method:
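HepAD38 cells (60,000/well) seeded in tetracycline-free medium to induce HBV, treated with half-log serial compound dilutions for 6 days at 37 °C. HBV DNA purified from filtered supernatant and quantified by real-time PCR against HBV plasmid standards; EC50 from relative copy numbers by non-linear regression.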
Background: In qPCR the cycle at which signal appears reflects the starting amount.

Broadly, the CC50 is the concentration giving 50% cytotoxicity. A lower CC50 goes with greater toxicity to the cells. Molecule `O=C(NC1(COC(F)F)CC1)c1cnn2c1CN(C(=O)c1cc3c(Cl)cccc3[nH]1)CC2` [Example 105, 5-(4-chloro-1H-indole-2-carbonyl)-N-{1-[(difluoromethoxy)methyl]cyclopropyl}-4H,5H,6H,7H-pyrazolo[1,5-a]pyrazine-3-carboxamide] came in with a CC50 at 6 days in series [1] greater than 10 µM. Further, the IC50 in series [2] was less than 5 µM. In series [3], the EC50 is less than 1 µM.
In series [1], `O=C(NC1(C(F)(F)F)CCC1)c1cnn2c1CN(C(=O)c1cc3ccccc3[nH]1)CC2` [Example 106, 5-(1H-indole-2-carbonyl)-N-[1-(trifluoromethyl)cyclobutyl]-4H,5H,6H,7H-pyrazolo[1,5-a]pyrazine-3-carboxamide] yielded a CC50 at 6 days greater than 10 µM. Further, the IC50 in series [2] is less than 5 µM. The EC50 in series [3] was less than 1 µM.
As for `Cc1cc(F)cc2[nH]c(C(=O)N3CCn4ncc(C(=O)N5CCCOCC56CC6)c4C3)cc12` [Example 107, 4-[5-(6-fluoro-4-methyl-1H-indole-2-carbonyl)-4H,5H,6H,7H-pyrazolo[1,5-a]pyrazine-3-carbonyl]-8-oxa-4-azaspiro[2.6]nonane], in series [1], the CC50 at 6 days was greater than 10 µM. Besides, in series [2], the IC50 is less than 5 µM. In series [3], the EC50 is less than 1 µM.
In series [1], `Cc1c(F)ccc2[nH]c(C(=O)N3CCn4ncc(C(=O)N5CCCOCC56CC6)c4C3)cc12` [Example 108, 4-[5-(5-fluoro-4-methyl-1H-indole-2-carbonyl)-4H,5H,6H,7H-pyrazolo[1,5-a]pyrazine-3-carbonyl]-8-oxa-4-azaspiro[2.6]nonane] gave a CC50 at 6 days greater than 10 µM. Also, in series [2], the IC50 is less than 5 µM. The EC50 in series [3] was less than 1 µM.
For `O=C(c1cc2c(F)c(F)ccc2[nH]1)N1CCn2ncc(C(=O)N3CCCOCC34CC4)c2C1` [Example 109, 4-[5-(4,5-difluoro-1H-indole-2-carbonyl)-4H,5H,6H,7H-pyrazolo[1,5-a]pyrazine-3-carbonyl]-8-oxa-4-azaspiro[2.6]nonane] the same measures were greater than 10 µM, less than 5 µM and less than 1 µM.
As to `O=C(c1cc2c(Cl)cccc2[nH]1)N1CCn2ncc(C(=O)N3CCCOCC34CC4)c2C1` [Example 110, 4-[5-(4-chloro-1H-indole-2-carbonyl)-4H,5H,6H,7H-pyrazolo[1,5-a]pyrazine-3-carbonyl]-8-oxa-4-azaspiro[2.6]nonane], the CC50 at 6 days in series [1] was greater than 10 µM. Further, the IC50 in series [2] is less than 5 µM. The EC50 in series [3] is less than 1 µM.
In turn, `O=C(c1cc2cc(Cl)c(F)cc2[nH]1)N1CCn2ncc(C(=O)N3CCCOCC34CC4)c2C1` [Example 111, 4-[5-(5-chloro-6-fluoro-1H-indole-2-carbonyl)-4H,5H,6H,7H-pyrazolo[1,5-a]pyrazine-3-carbonyl]-8-oxa-4-azaspiro[2.6]nonane] gave a CC50 at 6 days in series [1] greater than 10 µM. Also, the IC50 in series [2] was less than 5 µM. In addition, the EC50 in series [3] was less than 1 µM.
For `Cc1cc(F)cc2[nH]c(C(=O)N3CCn4ncc(C(=O)N[C@H](C)C(F)(F)F)c4C3)cc12` [Example 112, 5-(6-fluoro-4-methyl-1H-indole-2-carbonyl)-N-[(2R)-1,1,1-trifluoropropan-2-yl]-4H,5H,6H,7H-pyrazolo[1,5-a]pyrazine-3-carboxamide] the same measures were greater than 10 µM, less than 5 µM and less than 1 µM.
In the case of `Cc1c(F)ccc2[nH]c(C(=O)N3CCn4ncc(C(=O)N[C@H](C)C(F)(F)F)c4C3)cc12` [Example 113, 5-(5-fluoro-4-methyl-1H-indole-2-carbonyl)-N-[(2R)-1,1,1-trifluoropropan-2-yl]-4H,5H,6H,7H-pyrazolol[1,5-a]pyrazine-3-carboxamide], the CC50 at 6 days in series [1] is greater than 10 µM. In series [2], the IC50 was less than 5 µM. In series [3], the EC50 is less than 1 µM.
For `C[C@@H](NC(=O)c1cnn2c1CN(C(=O)c1cc3c(F)c(F)ccc3[nH]1)CC2)C(F)(F)F` [Example 114, 5-(4,5-difluoro-1H-indole-2-carbonyl)-N-[(2R)-1,1,1-trifluoropropan-2-yl]-4H,5H,6H,7H-pyrazolo[1,5-a]pyrazine-3-carboxamide] the same measures were greater than 10 µM, less than 5 µM and less than 1 µM.
The like results for `C[C@@H](NC(=O)c1cnn2c1CN(C(=O)c1cc3c(Cl)cccc3[nH]1)CC2)C(F)(F)F` [Example 115, 5-(4-chloro-1H-indole-2-carbonyl)-N-[(2R)-1,1,1-trifluoropropan-2-yl]-4H,5H,6H,7H-pyrazolo[1,5-a]pyrazine-3-carboxamide] were, in that order, greater than 10 µM, less than 5 µM and less than 1 µM.
The like results for `C[C@@H](NC(=O)c1cnn2c1CN(C(=O)c1cc3cc(Cl)c(F)cc3[nH]1)CC2)C(F)(F)F` [Example 116, 5-(5-chloro-6-fluoro-1H-indole-2-carbonyl)-N-[(2R)-1,1,1-trifluoropropan-2-yl]-4H,5H,6H,7H-pyrazolo[1,5-a]pyrazine-3-carboxamide] were, in that order, greater than 10 µM, less than 5 µM and less than 1 µM.
For the molecule `O=C(c1cc2cc(F)c(Cl)cc2[nH]1)N1CCn2ncc(C(=O)N3CCC(O)CC34CC4)c2C1` (stereo not drawn) [Example 117, 4-[5-(6-chloro-5-fluoro-1H-indole-2-carbonyl)-4H,5H,6H,7H-pyrazolo[1,5-a]pyrazine-3-carbonyl]-4-azaspiro[2.5]octan-7-ol], the CC50 at 6 days in series [1] was greater than 10 µM. Besides, in series [2], the IC50 was less than 5 µM. Also, in series [3], the EC50 was less than 1 µM.
The like results for `O=C(c1cc2c(Cl)cccc2[nH]1)N1CCn2ncc(C(=O)N3CCC(O)CC34CC4)c2C1` (stereo not drawn) [Example 118, 4-[5-(4-chloro-1H-indole-2-carbonyl)-4H,5H,6H,7H-pyrazolo[1,5-a]pyrazine-3-carbonyl]-4-azaspiro[2.5]octan-7-ol] were, in that order, greater than 10 µM, less than 5 µM and less than 1 µM.
`O=C(c1cc2c(F)c(F)ccc2[nH]1)N1CCn2ncc(C(=O)N3CCC(O)CC34CC4)c2C1` (stereo not drawn) [Example 119, 4-[5-(4,5-difluoro-1H-indole-2-carbonyl)-4H,5H,6H,7H-pyrazolo[1,5-a]pyrazine-3-carbonyl]-4-azaspiro[2.5]octan-7-ol] came in with a CC50 at 6 days in series [1] greater than 10 µM. The IC50 in series [2] was less than 5 µM. Further, the EC50 in series [3] is less than 1 µM.
Take `Cc1c(F)ccc2[nH]c(C(=O)N3CCn4ncc(C(=O)N5CCC(O)CC56CC6)c4C3)cc12` (stereo not drawn) [Example 120, 4-[5-(5-fluoro-4-methyl-1H-indole-2-carbonyl)-4H,5H,6H,7H-pyrazolo[1,5-a]pyrazine-3-carbonyl]-4-azaspiro[2.5]octan-7-ol]: the CC50 at 6 days in series [1] is greater than 10 µM. In series [2], the IC50 is less than 5 µM. Besides, the EC50 in series [3] was less than 1 µM.
In series [1], `Cc1cc(F)cc2[nH]c(C(=O)N3CCn4ncc(C(=O)N5CCC(O)CC56CC6)c4C3)cc12` (stereo not drawn) [Example 121, 4-[5-(6-fluoro-4-methyl-1H-indole-2-carbonyl)-4H,5H,6H,7H-pyrazolo[1,5-a]pyrazine-3-carbonyl]-4-azaspiro[2.5]octan-7-ol] gave a CC50 at 6 days greater than 10 µM. In addition, the IC50 in series [2] was less than 5 µM. Also, the EC50 in series [3] is less than 1 µM.
The like results for `O=C(c1cc2ccccc2[nH]1)N1CCn2ncc(C(=O)N3CCC(F)(F)C3)c2C1` [Example 122, 2-[3-(3,3-difluoropyrrolidine-1-carbonyl)-4H,5H,6H,7H-pyrazolo[1,5-a]pyrazine-5-carbonyl]-1H-indole] were, in that order, greater than 10 µM, less than 5 µM and less than 1 µM.
